Results as given in patent US20220249599A1, “TREATMENT OF IMPLANTS WITH ENGINEERED ANTIMICROBIAL AMPHIPHILIC PEPTIDES” (priority 2018, published 2022).
≈ marks a conversion by molar mass, not a printed value. Like-named read-outs stand apart in the source and are kept apart here.

Experiments:
[1] = system: Acinetobacter spp. (n = 104); assay type: cell-based; conditions: Acinetobacter spp. (n = 104), CLSI breakpoints
Experimental: (§1) The clinical isolates were obtained from USA hospitals. […] Plates were incubated at 35° C. overnight.

[2] = system: Escherichia coli (n = 101); assay type: cell-based; conditions: Escherichia coli (n = 101), CLSI breakpoints, colistin EUCAST
Experimental: as §1

[3] = system: Pseudomonas aeruginosa (n = 109); assay type: cell-based; conditions: Pseudomonas aeruginosa (n = 109), CLSI breakpoints
Experimental: as §1

[4] = system: Enterobacter spp. (n = 102); assay type: cell-based, Enterobacter aerogenes and E. cloacae; conditions: Enterobacter spp. (n = 102); for % R (isolates resistant): CLSI breakpoints, colistin EUCAST
Experimental: as §1

[5] = system: Enterococcus faecium (n = 104); assay: microbe, parasite or virus in culture; conditions: for % R (isolates resistant): CLSI breakpoints
Experimental: Comparator antibiotics were supplied by Micromyx, and stock solutions were prepared on the first day of testing using solvents recommended by CLSI (1). Stock solutions of all compounds were made at 40× the final testing concentration and stored at −80° C. prior to testing. Information regarding compound source, catalog and lot number, testing concentrations and drug diluent for the comparators and test agent are detailed below in Table 3.
The test organisms evaluated in this study consisted of clinical isolates from the Micromyx Repository and reference isolates from the American Type Culture Collection (ATCC; Manassas, Va.). The clinical isolates were obtained from USA hospitals. Upon initial receipt at Micromyx, the organisms were sub-cultured onto an appropriate agar medium. Following incubation, colonies were harvested from these plates and cell suspensions prepared and frozen at −80° C. with a cryoprotectant. Prior to testing, the isolates were streaked from frozen vials onto Trypticase Soy Agar with 5% sheep blood (Becton Dickenson [BD]; Sparks, MD; Lot Nos. 7173618, 7166759, 7208688, 72144895, 7228505 and Remel Lenexa, Kans. Lot No. 212574). Plates were incubated at 35° C. overnight.
Mueller Hinton II broth (MHB II; BD; Lot Nos. 6258541 and 7143896) was used for MIC testing of aerobic organisms.
MIC values were determined using a broth microdilution procedure described by CLSI (1, 3). Automated liquid handlers (Multidrop 384, Labsystems, Helsinki, Finland; Biomek 2000 and Biomek FX, Beckman Coulter, Fullerton Calif.) were used to conduct serial dilutions and liquid transfers.
To prepare the drug mother plates, which would provide the serial drug dilutions for the replicate daughter plates, the wells of columns 2-12 of standard 96-well microdilution plates (Costar 3795) were filled with 150 µl of the designated diluent for each row of drug. The test articles and comparator compounds ([…] at 40× the highest concentration to be tested) were dispensed into the appropriate wells in column 1. The Biomek 2000 was then used to make 2-fold serial dilutions in the mother plates from column 1 through column 11. The wells of Column 12 contained no drug and served as the organism growth control wells for the assay.
The daughter plates were loaded with […] per well of MHB II using the Multidrop 384. The daughter plates were completed on the Biomek FX instrument which transferred 5 µL of drug solution from each well of a mother plate to the corresponding well of each daughter plate in a single step. A standardized inoculum of each test organism was prepared per CLSI methods (1). The inoculum for each organism was dispensed into sterile reservoirs divided by length (Beckman Coulter), and the Biomek 2000 was used to inoculate the plates. Daughter plates were placed on the Biomek 2000 work surface in reverse orientation so that inoculation took place from low to high drug concentration.
Plates were stacked 3-4 high, covered with a lid on the top plate, placed in plastic bags, and incubated at 35° C. for 16 to 20 hrs. Following incubation, the microplates were removed from the incubator and viewed from the bottom using a plate viewer. […] The MIC was read and recorded as the lowest concentration of drug that inhibited visible growth of the organism.
Clinical breakpoints to determine percent resistance within a given organism group were obtained from CLSI (3), with the exception of colistin for K. pneumoniae, Enterobacter spp., and E. coli, which are only available from EUCAST.

[6] = system: Staphylococcus aureus (n = 104); assay: microbe, parasite or virus in culture; assay type: cell-based; conditions: for % R (isolates resistant): CLSI breakpoints; for MIC range: all methicillin-resistant
Experimental: as §1

[7] = system: Klebsiella pneumoniae (n = 101); assay type: cell-based
Experimental: as §1

[8] = Staphylococcus aureus (n = 104)

Question: Which results are given for `CC(C)(O/N=C(\C(=O)N[C@@H]1C(=O)N2C(C(=O)[O-])=C(C[n+]3ccccc3)CS[C@H]12)c1csc(N)n1)C(=O)O` [Ceftazidime]?
Answer: % R (isolates resistant) [1]: 61.5%; % R (isolates resistant) [2]: 33.6%; % R (isolates resistant) [3]: 14.6%; % R (isolates resistant) [4]: 36.3%

Question: How did the MIC50 ([5]; Enterococcus faecium) turn out when `CN[C@H](CC(C)C)C(=O)N[C@H]1C(=O)N[C@@H](CC(N)=O)C(=O)N[C@H]2C(=O)N[C@H]3C(=O)N[C@H](C(=O)N[C@H](C(=O)O)c4cc(O)cc(O)c4-c4cc3ccc4O)[C@H](O)c3ccc(c(Cl)c3)Oc3cc2cc(c3O[C@@H]2O[C@H](CO)[C@@H](O)[C@H](O)[C@H]2O[C@H]2C[C@](C)(N)[C@H](O)[C@H](C)O2)Oc2ccc(cc2Cl)[C@H]1O` [Vancomycin] was run?
Answer: The MIC50 was 1 µg/mL (≈ 0.69 µM).

Question: What about the MIC90 ([5]; Enterococcus faecium) of the same compound?
Answer: Its MIC90 is greater than 32 µg/mL.

Question: What about the MIC90 ([5]; Enterococcus faecium (n = 104)) of the same compound?
Answer: The MIC90 was greater than 32 µg/mL.

Question: What about the “% R (isolates resistant)” value ([5]; Enterococcus faecium (n = 104)) of the same compound?
Answer: The value was 47.1%.

Question: What about the MIC ([5]; Enterococcus faecium, read-out: Mode (MIC)) of the same compound?
Answer: Its MIC is greater than 32 µg/mL.

Question: What about the MIC50 ([6]; Staphylococcus aureus) of the same compound?
Answer: The MIC50 was 1 µg/mL (≈ 0.69 µM).

Question: And the MIC90 ([6]; Staphylococcus aureus)?
Answer: Its MIC90 is 1 µg/mL (≈ 0.69 µM).

Question: What about the “% R (isolates resistant)” value [6, 8] of the same compound?
Answer: Its value is 0%.

Question: What about the MIC range [6, 8] of the same compound?
Answer: The MIC range was 0.5 to 2 µg/mL.

Question: And the MIC ([6]; Staphylococcus aureus, read-out: Mode (MIC))?
Answer: The MIC was 1 µg/mL (≈ 0.69 µM).

Question: How did the “% R (isolates resistant)” value ([5]; Enterococcus faecium (n = 104)) turn out when `C[C@H]1c2cccc(O)c2C(=O)C2=C(O)[C@]3(O)C(=O)C(C(N)=O)=C(O)[C@@H](N(C)C)[C@@H]3[C@@H](O)[C@@H]21` [Doxycycline] was run?
Answer: The value was 25%.

Question: And the “% R (isolates resistant)” value [6, 8]?
Answer: Its value is 0%.

Question: What about the MIC range [6, 8] of the same compound?
Answer: Its MIC range is 0.06 to 8 µg/mL.

Question: Which results are given for `CCC[C@@H]1C[C@@H](C(=O)N[C@@H]([C@H]2O[C@H](SC)[C@H](O)[C@@H](O)[C@H]2O)[C@H](C)Cl)N(C)C1` [Clindamycin]?
Answer: MIC90 [6, 8]: >16 µg/mL; % R (isolates resistant) [6, 8]: 37.5%

Question: Which MIC range ([5]; Enterococcus faecium (n = 104)) does the source give for `CC(=O)NC[C@H]1CN(c2ccc(N3CCOCC3)c(F)c2)C(=O)O1` [Linezolid] here?
Answer: Its MIC range is 1 to 32 µg/mL.

Question: And the “% R (isolates resistant)” value ([5]; Enterococcus faecium (n = 104))?
Answer: Its value is 3.8%.

Question: And the MIC range ([5]; Enterococcus faecium (n = 104), listed as linezolid)?
Answer: Its MIC range is 1 to 32 µg/mL.

Question: What about the “% R (isolates resistant)” value [6, 8] of the same compound?
Answer: The value was 1.9%.

Question: And the MIC range [6, 8]?
Answer: Its MIC range is 1 to 8 µg/mL.

Question: What does the source list for `NC[C@H]1O[C@H](O[C@H]2[C@H](O)[C@@H](O[C@H]3O[C@H](CO)[C@@H](O)[C@H](N)[C@H]3O)[C@H](N)C[C@@H]2N)[C@H](N)C[C@@H]1O` [Tobramycin]?
Answer: % R (isolates resistant) [1]: 49.0%; % R (isolates resistant) [2]: 21.7%; % R (isolates resistant) [7]: over 60%; % R (isolates resistant) ([7]; Klebsiella pneumoniae (n = 101), CLSI breakpoints, colistin EUCAST): 59.4%; % R (isolates resistant) [3]: 7.4%; MIC range [4]: 0.12 to 64 µg/mL; % R (isolates resistant) [4]: 3.9%
